Measured values as given in ChEMBL document CHEMBL3627610 (Eur J Med Chem, 2015).
Activity calls are given as the source filed them. No cut-off for these calls is given here.

Legend:
[1] = Agonist activity at melatonin receptor in Xenopus laevis melanophores assessed as effect on pigment aggregation after 60 mins by microtiter plate reader assay
Xenopus laevis [2] = organism: Xenopus laevis; assay: Agonist activity at melatonin receptor in Xenopus laevis melanophores assessed as effect on pigment aggregation at 10^-12 to 10^-5 M after 60 mins by microtiter plate reader assay
Xenopus laevis [3] = organism: Xenopus laevis; assay: Antagonist activity at melatonin receptor in Xenopus laevis melanophores assessed as effect on pigment aggregation at 10^-4 M after 60 mins by microtiter plate reader assay
Xenopus laevis [4] = organism: Xenopus laevis; assay: Agonist activity at melatonin receptor in Xenopus laevis melanophores assessed as effect on pigment aggregation at 10^-5 M after 60 mins by microtiter plate reader assay
[5] = target: T1, Melatonin receptor type 1B (Homo sapiens, UniProt P49286); assay: Displacement of 2-[125I]iodomelatonin from human recombinant MT2 expressed in CHO cell membranes incubated for 120 mins by liquid scintillation spectrometry
T1 sequence (P49286 whole entry): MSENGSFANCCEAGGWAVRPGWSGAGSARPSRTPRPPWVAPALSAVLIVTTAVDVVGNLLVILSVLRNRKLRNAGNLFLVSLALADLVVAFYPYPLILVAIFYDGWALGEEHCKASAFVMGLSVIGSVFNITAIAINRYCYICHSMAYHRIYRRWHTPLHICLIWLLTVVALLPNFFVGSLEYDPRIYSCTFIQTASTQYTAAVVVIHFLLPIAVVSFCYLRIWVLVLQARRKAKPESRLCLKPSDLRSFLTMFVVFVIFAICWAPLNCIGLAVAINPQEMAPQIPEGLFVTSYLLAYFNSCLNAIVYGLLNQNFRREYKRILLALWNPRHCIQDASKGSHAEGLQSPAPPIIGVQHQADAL

[6] = target: Melatonin receptor type 1A (Homo sapiens, UniProt P48039); assay: Displacement of 2-[125I]iodomelatonin from human recombinant MT1 expressed in CHO cell membranes incubated for 60 mins by liquid scintillation spectrometry
Sequence of Melatonin receptor type 1A (P48039 whole entry): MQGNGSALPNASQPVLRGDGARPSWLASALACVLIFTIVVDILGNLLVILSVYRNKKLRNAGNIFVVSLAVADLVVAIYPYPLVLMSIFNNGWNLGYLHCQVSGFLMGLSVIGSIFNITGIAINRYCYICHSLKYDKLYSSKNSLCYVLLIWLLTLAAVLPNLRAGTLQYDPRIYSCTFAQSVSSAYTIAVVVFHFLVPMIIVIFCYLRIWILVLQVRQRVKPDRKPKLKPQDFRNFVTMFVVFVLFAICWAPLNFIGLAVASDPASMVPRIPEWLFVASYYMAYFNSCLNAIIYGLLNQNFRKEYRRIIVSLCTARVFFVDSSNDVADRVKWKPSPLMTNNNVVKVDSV

| Compound | EC50 [1] | Emax (Xenopus laevis [2]) | inhibition (Xenopus laevis [3]) | Activity (Xenopus laevis [4]) | Ki [5] | Ki [6] |
| --- | --- | --- | --- | --- | --- | --- |
| COc1ccc2[nH]cc(CCNC(C)=O)c2c1 [MELATONIN] | 0.074 nM | 100% |  |  |  |  |
| COc1ccc2c(CCCNC(C)=O)cc(=O)oc2c1 |  |  | Active | inactive |  |  |
| COc1ccc2oc(=O)cc(CCNC(C)=O)c2c1 | 118 nM | 89% | Active |  | 3.4 nM | 13 nM |
